Values quoted from earlier work, collected in patent US20060153823A1, “Compositions and methods for nutritional supplementation” (Everett Laboratories, Inc., priority 2005, published 2006).

Legend:
[1] = tested on: patients with congestive heart failure
[2] = tested on: patients with ischemic heart disease
[3] = tested on: patients with hypertension
[4] = tested on: patients with cardiomyopathy

Structure (SMILES)	levels and functioning of nitric oxide (NO) (nitric oxide (NO))	blood pressure [1]	myocardial metabolic function [1]	myocardial thickness [1]	magnitude and rate of clinical improvement [2]	blood pressure [3]	cardiac function including ejection fraction and cardiac output [4]
Nc1nc2ncc(CNc3ccc(C(=O)N[C@@H](CCC(=O)O)C(=O)O)cc3)nc2c(=O)[nH]1 [folic acid]	improves the levels and functioning						
COC1=C(OC)C(=O)C(C/C=C(\C)CC/C=C(\C)CC/C=C(\C)CC/C=C(\C)CC/C=C(\C)CC/C=C(\C)CC/C=C(\C)CC/C=C(\C)CC/C=C(\C)CCC=C(C)C)=C(C)C1=O [CoQ10, coenzyme Q10]		reduce blood pressure	improve myocardial metabolic function	reduce myocardial thickness	enhances both the magnitude and rate of clinical improvement	significantly reduce blood pressure	significant improvement in cardiac function
